Measurements: patent US20080153838A1, “Compounds Having Tie2 (Tek) Activity” (ASTRAZENECA AB, priority 2005, published 2008)

Key:
[1] = target: T1, Tie2 receptor tyrosine kinase (Homo sapiens, UniProt Q02763); assay: In vitro receptor tyrosine kinase inhibition assay (ELISA, Test (a)); type: biochemical; design: consist of only the intracellular portion C-terminal portion of the respective receptor, within which is found the kinase domain; made in house; host or cells: baculovirus/Sf21 insect cells; cleared lysate used without purification; details: recombinant human Tie2 kinase domain, peptide substrate
Procedure: a. In Vitro Receptor Tyrosine Kinase Inhibition Assay
To test for inhibition of Tie2 receptor tyrosine kinase, compounds are evaluated in a non-cell based protein kinase assay by their ability to inhibit the protein kinase enzyme phosphorylation of a tyrosine containing polypeptide substrate in an ELISA based microtitre plate assay. In this particular case, the assay was to determine the IC50, for three different recombinant human tyrosine kinases Tie2, KDR and Flt.
To facilitate production of the tyrosine kinases, recombinant receptor genes were produced using standard molecular biology cloning and mutagenesis techniques. These recombinant proteins fragments encoded within these genes consist of only the intracellular portion C-terminal portion of the respective receptor, within which is found the kinase domain. The recombinant genes encoding the kinase domain containing fragments were cloned and expressed in standard baculovirus/Sf21 system (or alternative equivalent). […]
Constitutive kinase activity of these recombinant proteins was determined by their ability to phosphorylate a synthetic peptide (made up of a random co-polymer of Glutamic Acid, Alanine and Tyrosine in the ratio of 6:3:1). […]
The immobilised phospho-peptide product of the reaction was detected by immunological methods. […] Following extensive washing with PBS-T, HRP activity in each well of the plate was measured […] using 22′-Azino-di-[3-ethylbenzthiazoline sulfonate (6)] diammonium salt crystals ABTS (Sigma P4922—prepared as per manufactures instructions) as a substrate incubated for 30-45 minutes to allow colour development, before 100 ul of 1M H2SO4 was added to stop the reaction.
Quantification of colour development and thus enzyme activity was achieved by the measurement of absorbance at 405 nm on a Molecular Devices ThermoMax microplate reader. Kinase inhibition for a given compound was expressed as an IC50 value. […] The range of phosphorylation was calculated from the positive (vehicle plus ATP) and negative (vehicle minus ATP) control values.
Target sequence in this assay (Q02763 770-1124 limits assumed): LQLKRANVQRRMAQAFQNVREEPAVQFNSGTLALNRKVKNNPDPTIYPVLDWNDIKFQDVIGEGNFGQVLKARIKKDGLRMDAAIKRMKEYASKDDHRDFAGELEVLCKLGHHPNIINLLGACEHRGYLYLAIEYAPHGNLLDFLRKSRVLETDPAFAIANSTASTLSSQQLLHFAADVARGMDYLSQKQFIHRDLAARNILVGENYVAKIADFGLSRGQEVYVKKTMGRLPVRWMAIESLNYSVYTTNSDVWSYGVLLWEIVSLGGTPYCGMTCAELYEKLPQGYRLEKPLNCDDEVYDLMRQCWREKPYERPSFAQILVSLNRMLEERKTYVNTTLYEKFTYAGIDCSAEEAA

[2] = target: T1, Tie2 receptor tyrosine kinase; assay: Cellular Tie2 autophosphorylation assay (Test (b)); type: cell-based; design: one can use natural cell lines or primary cells which are known to express the receptor of choice; endogenous in cells; host or cells: EA.hy926/B3 cells (HUVEC named as alternative); details: Ang1 ligand stimulated whole cells (e.g. EA.hy926/B3); read-out: IC50 (μM) Test (b): Inhibition of autophosphorylation of Tie2 receptor tyrosine kinase
Text: b. Cellular Tie2 Autophosphorylation Assay
This assay is based on measuring the ability of compounds to inhibit autophosphorylation of the Tie2 receptor which normally leads to the production of “activated” receptor that in turn initiates the particular signal transduction pathways associated with the receptor function.
Autophosphorylation can be achieved by a number of means. It is known that expression of recombinant kinase domains in baculoviral systems can lead to the production of phosphorylated and activated receptor. It is also reported that over expression of receptors in recombinant cell lines can itself lead to receptor autophosphorylation in the absence of the ligand (Heldin C-H. 1995 Cell: 80, 213-223; Blume-J. P, Hunter T. 2001 Nature: 411, 355-65). Furthermore, there are numerous literature examples in which chimaeric receptors have been constructed. In these cases the natural, external cell surface domain of the receptor has been replaced with that of a domain which is known to be readily dimerised via the addition of the appropriate ligand (e.g. TrkA-Tie2/NGF ligand (Marron, M. B., et al., 2000 Journal of Biological Chemistry: 275:39741-39746) or C-fms-Tie-1/CSF-1 ligand (Kontos, C. D., et al., 2002 Molecular and Cellular Biology: 22, 1704-1713). Thus when the chimaeric receptor expressed in a host cell line and the respective ligand is added, this induces autophosphorylation of the chimeric receptor's kinase domain. This approach has the advantage of often allowing a known (and often easily obtained) ligand to be used instead of having to identify and isolate the natural ligand for each receptor of interest.
Naturally if the ligand is available one can use natural cell lines or primary cells which are known to express the receptor of choice and simply stimulate with ligand to achieve ligand induced phosphorylation. […]
Target sequence in this assay (Q02763 23-1124): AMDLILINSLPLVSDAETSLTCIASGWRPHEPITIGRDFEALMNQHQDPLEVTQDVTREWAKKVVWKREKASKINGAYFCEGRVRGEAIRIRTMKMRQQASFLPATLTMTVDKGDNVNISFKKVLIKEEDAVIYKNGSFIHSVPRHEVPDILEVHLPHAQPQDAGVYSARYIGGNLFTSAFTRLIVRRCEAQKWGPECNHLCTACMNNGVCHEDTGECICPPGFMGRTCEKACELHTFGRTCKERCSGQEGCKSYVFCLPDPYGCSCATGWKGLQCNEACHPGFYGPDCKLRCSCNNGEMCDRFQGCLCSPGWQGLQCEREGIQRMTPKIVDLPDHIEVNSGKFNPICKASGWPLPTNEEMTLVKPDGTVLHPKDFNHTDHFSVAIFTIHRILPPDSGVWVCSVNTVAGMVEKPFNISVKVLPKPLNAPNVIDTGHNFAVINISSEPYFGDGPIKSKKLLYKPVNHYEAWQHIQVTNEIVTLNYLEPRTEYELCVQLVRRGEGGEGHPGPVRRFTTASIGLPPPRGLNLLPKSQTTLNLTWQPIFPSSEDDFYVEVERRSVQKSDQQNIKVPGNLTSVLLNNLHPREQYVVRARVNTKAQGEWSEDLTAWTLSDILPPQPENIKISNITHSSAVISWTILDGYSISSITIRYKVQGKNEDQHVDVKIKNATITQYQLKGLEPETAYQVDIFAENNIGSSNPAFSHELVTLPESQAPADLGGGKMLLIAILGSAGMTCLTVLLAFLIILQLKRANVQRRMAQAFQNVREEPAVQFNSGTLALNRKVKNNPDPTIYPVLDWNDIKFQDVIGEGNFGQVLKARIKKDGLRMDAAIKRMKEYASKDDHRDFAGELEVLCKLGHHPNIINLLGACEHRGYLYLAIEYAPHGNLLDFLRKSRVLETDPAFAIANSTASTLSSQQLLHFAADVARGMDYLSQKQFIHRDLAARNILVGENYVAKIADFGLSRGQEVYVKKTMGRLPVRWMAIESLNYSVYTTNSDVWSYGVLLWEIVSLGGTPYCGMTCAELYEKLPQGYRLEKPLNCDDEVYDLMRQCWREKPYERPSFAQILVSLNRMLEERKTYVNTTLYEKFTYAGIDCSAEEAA

Row | IC50 [1] | IC50 [2] | SMILES
1 | 2.6 µM | 0.031 µM | CC(C)(C)c1cc(NC(=O)Nc2cccc(C#Cc3ccc(N)nc3)c2)no1 [Example 2, N-{3-[(6-aminopyridin-3-yl)ethynyl]phenyl}-N′-(5-tert-butylisoxazol-3-yl)urea]
2 | 8.2 µM | 0.077 µM | CC(C)(C)c1cc(NC(=O)Nc2cccc(C#Cc3cccnc3N)c2)no1 [Example 3, N-2{3-[(2-aminopyridin-3-yl)ethynyl]phenyl}-N′-(5-tert-butylisoxazol-3-yl)urea]
3 | 4.4 µM | 0.02 µM | CC(C)(C)c1cc(NC(=O)Nc2cccc(C#Cc3cnc(N)cn3)c2)no1 [Example 5, N-{3-[(5-aminopyrazin-2-yl)ethynyl]phenyl}-N′-(5-tert-butylisoxazol-3-yl)urea]
